The values below come from PubChem BioAssay AID1259407 (Chemical Carcinogenesis Research Information System (CCRIS), 2018).

For this data set, the system named is CCRIS mutagenicity, Ames/micronucleus/aberration tests. Kind of data set: CCRIS mutagenicity studies.
Setting [1] is: Test System: AMES SALMONELLA TYPHIMURIUM, Strain/Indicator: TA98, Metabolic Activation: NONE, Method: STANDARD PLATE.
[2] abbreviates: Test System: AMES SALMONELLA TYPHIMURIUM, Strain/Indicator: TA100, Metabolic Activation: NONE, Method: STANDARD PLATE.
Where [3] appears, read: Test System: AMES SALMONELLA TYPHIMURIUM, Strain/Indicator: TA1535, Metabolic Activation: NONE, Method: STANDARD PLATE.
The mark [4] stands for this setting: Test System: AMES SALMONELLA TYPHIMURIUM, Strain/Indicator: TA1538, Metabolic Activation: NONE, Method: STANDARD PLATE.
Setting [5] is: Test System: AMES SALMONELLA TYPHIMURIUM, Strain/Indicator: TA98, Metabolic Activation: RAT, LIVER, S-9, AROCLOR 1254, Method: STANDARD PLATE.

Activity calls are given as the source filed them. The rule behind the calls is not given here.

Consider `CNC[C@H](O)[C@@H](O)[C@H](O)[C@H](O)CO.CNC[C@H](O)[C@@H](O)[C@H](O)[C@H](O)CO.O=C([O-])CN(CCN(CC(=O)[O-])CC(=O)[O-])CCN(CC(=O)[O-])[C@H](COCc1ccccc1)C(=O)[O-].[Gd+3].[H+].[H+]`, for which the mutagenic call is “inactive; negative” under setting [1]; “inactive; negative” (Test System: AMES SALMONELLA TYPHIMURIUM, Strain/Indicator: TA98, Metabolic Activation: RAT LIVER S-9, AROCLOR 1254 (10%), Method: STANDARD PLATE); “inactive; negative” under setting [2]; “inactive; negative” (Test System: AMES SALMONELLA TYPHIMURIUM, Strain/Indicator: TA100, Metabolic Activation: RAT LIVER S-9, AROCLOR 1254 (10%), Method: STANDARD PLATE); “inactive; negative” under setting [3]; “inactive; negative” (Test System: AMES SALMONELLA TYPHIMURIUM, Strain/Indicator: TA1535, Metabolic Activation: RAT LIVER S-9, AROCLOR 1254 (10%), Method: STANDARD PLATE). Moreover, the mutagenic call (Test System: AMES SALMONELLA TYPHIMURIUM, Strain/Indicator: TA1537, Metabolic Activation: NONE, Method: STANDARD PLATE) was “inactive; negative”; the mutagenic call (Test System: AMES SALMONELLA TYPHIMURIUM, Strain/Indicator: TA1537, Metabolic Activation: RAT LIVER S-9, AROCLOR 1254 (10%), Method: STANDARD PLATE) was “inactive; negative”; the mutagenic call under setting [4] is “inactive; negative”; the mutagenic call (Test System: AMES SALMONELLA TYPHIMURIUM, Strain/Indicator: TA1538, Metabolic Activation: RAT LIVER S-9, AROCLOR 1254 (10%), Method: STANDARD PLATE) is “inactive; negative”; the mutagenic call (Test System: ESCHERICHIA COLI, Strain/Indicator: WP2 UVR A-, Metabolic Activation: NONE, Method: STANDARD PLATE) was “inactive; negative”; the mutagenic call (Test System: ESCHERICHIA COLI, Strain/Indicator: WP2 UVR A-, Metabolic Activation: RAT LIVER S-9, AROCLOR 1254 (10%), Method: STANDARD PLATE) was “inactive; negative”.

Turning to `[O-][N+](=Nc1ccc2c(c1)Cc1ccccc1-2)c1ccc2c(c1)Cc1ccccc1-2`, the mutagenic call is “inactive; negative” under setting [1] and “inactive; negative” under setting [5].

For the compound `CCOCc1c(O)cc2c(c1O)C(=O)c1ccccc1C2=O`, the mutagenic call reads like this: (Test System: AMES SALMONELLA TYPHIMURIUM, Strain/Indicator: TA97, Metabolic Activation: NONE, Method: PREINCUBATION) “inactive; negative”; (Test System: AMES SALMONELLA TYPHIMURIUM, Strain/Indicator: TA97, Metabolic Activation: RAT, LIVER, S-9, AROCLOR 1254, Method: PREINCUBATION) “active; positive”; (Test System: AMES SALMONELLA TYPHIMURIUM, Strain/Indicator: TA98, Metabolic Activation: NONE, Method: PREINCUBATION) “active; positive”; (Test System: AMES SALMONELLA TYPHIMURIUM, Strain/Indicator: TA98, Metabolic Activation: RAT, LIVER, S-9, AROCLOR 1254, Method: PREINCUBATION) “active; positive”; (Test System: AMES SALMONELLA TYPHIMURIUM, Strain/Indicator: TA98, Metabolic Activation: RAT, LIVER, S-9, PCB, Method: PREINCUBATION) “active; positive”; (Test System: AMES SALMONELLA TYPHIMURIUM, Strain/Indicator: TA100, Metabolic Activation: NONE, Method: PREINCUBATION) “active; positive”. The mutagenic call (Test System: AMES SALMONELLA TYPHIMURIUM, Strain/Indicator: TA100, Metabolic Activation: RAT, LIVER, S-9, AROCLOR 1254, Method: PREINCUBATION) is “active; positive”; the mutagenic call (Test System: AMES SALMONELLA TYPHIMURIUM, Strain/Indicator: TA100, Metabolic Activation: RAT, LIVER, S-9, PCB, Method: PREINCUBATION) is “active; positive”; the mutagenic call (Test System: AMES SALMONELLA TYPHIMURIUM, Strain/Indicator: TA102, Metabolic Activation: NONE, Method: PREINCUBATION) is “active; positive”; the mutagenic call (Test System: AMES SALMONELLA TYPHIMURIUM, Strain/Indicator: TA102, Metabolic Activation: RAT, LIVER, S-9, Method: PREINCUBATION) is “active; positive”; the mutagenic call (Test System: AMES SALMONELLA TYPHIMURIUM, Strain/Indicator: TA1537, Metabolic Activation: NONE, Method: PREINCUBATION) is “active; positive”; the mutagenic call (Test System: AMES SALMONELLA TYPHIMURIUM, Strain/Indicator: TA1537, Metabolic Activation: RAT, LIVER, S-9, AROCLOR 1254, Method: PREINCUBATION) was “active; positive”. For the same compound, the mutagenic call was “active; positive” (Test System: AMES SALMONELLA TYPHIMURIUM, Strain/Indicator: TA1537, Metabolic Activation: RAT, LIVER, S-9, Method: PREINCUBATION); “inactive; negative” (Test System: CHINESE HAMSTER V-79, Strain/Indicator: V-79/8-AZAGUANINE, Metabolic Activation: NONE, Method: STANDARD PLATE); “active; positive” (Test System: CHINESE HAMSTER V-79, Strain/Indicator: V-79/8-AZAGUANINE, Metabolic Activation: PRIMARY RAT HEPATOCYTES, Method: STANDARD PLATE).

For the compound `Nc1c(N=Nc2ccc(S(=O)(=O)CCOS(=O)(=O)O)cc2)c(S(=O)(=O)O)cc2cc(S(=O)(=O)O)c(N=Nc3ccc(S(=O)(=O)CCOS(=O)(=O)O)cc3)c(O)c12`, the mutagenic call is “inactive; negative” (Test System: Ames Salmonella typhimurium, Strain/Indicator: TA98, Metabolic Activation: None, Method: Preincubation); “inactive; negative” (Test System: Ames Salmonella typhimurium, Strain/Indicator: TA98, Metabolic Activation: Rat, Liver, S-9, Aroclor 1254, Method: Preincubation); “inactive; negative” (Test System: Ames Salmonella typhimurium, Strain/Indicator: TA100, Metabolic Activation: None, Method: Preincubation); “inactive; negative” (Test System: Ames Salmonella typhimurium, Strain/Indicator: TA100, Metabolic Activation: Rat, Liver, S-9, Aroclor 1254, Method: Preincubation); “inactive; negative” (Test System: Ames Salmonella typhimurium, Strain/Indicator: TA102, Metabolic Activation: None, Method: Preincubation); “inactive; negative” (Test System: Ames Salmonella typhimurium, Strain/Indicator: TA102, Metabolic Activation: Rat, Liver, S-9, Aroclor 1254, Method: Preincubation). The mutagenic call reads like this: (Test System: Ames Salmonella typhimurium, Strain/Indicator: TA1535, Metabolic Activation: None, Method: Preincubation) “inactive; negative”; (Test System: Ames Salmonella typhimurium, Strain/Indicator: TA1535, Metabolic Activation: Rat, Liver, S-9, Aroclor 1254, Method: Preincubation) “inactive; negative”.

Turning to `O=C1c2ccc(O)cc2C(=O)c2ccc(O)cc21`, the mutagenic call under setting [1] was “inactive; negative”; the mutagenic call under setting [5] is “inactive; negative”; the mutagenic call under setting [2] was “inactive; negative”; the mutagenic call (Test System: AMES SALMONELLA TYPHIMURIUM, Strain/Indicator: TA100, Metabolic Activation: RAT, LIVER, S-9, AROCLOR 1254, Method: STANDARD PLATE) is “inactive; negative”; the mutagenic call under setting [3] is “inactive; negative”; the mutagenic call (Test System: AMES SALMONELLA TYPHIMURIUM, Strain/Indicator: TA1535, Metabolic Activation: RAT, LIVER, S-9, AROCLOR 1254, Method: STANDARD PLATE) was “inactive; negative”. Also, the mutagenic call under setting [4] was “inactive; negative” and the mutagenic call (Test System: AMES SALMONELLA TYPHIMURIUM, Strain/Indicator: TA1538, Metabolic Activation: RAT, LIVER, S-9, AROCLOR 1254, Method: STANDARD PLATE) is “inactive; negative”.
